PubChem BioAssay (NCI)
“And” between values parts separate entries of the source, which are not always exact repeats. Equal values may be shown once.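 How tested: cells in 96-well plates exposed to compound for 48 hours at five concentrations. At the GI50, growth is halved. TGI: total growth inhibition.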

Experiments:
Experiment in all cases: growth of human tumour cells (NCI), 48 h
OVCAR-4 ovarian = tested on: OVCAR-4 ovarian
T-47D breast = tested on: T-47D breast
RXF 393 renal = tested on: RXF 393 renal
SF-295 CNS = tested on: SF-295 CNS
HOP-62 NSCLC = tested on: HOP-62 NSCLC
A498 renal = tested on: A498 renal
SNB-19 CNS = tested on: SNB-19 CNS
HCC-2998 colon = tested on: HCC-2998 colon
NCI-H226 lung = tested on: NCI-H226 lung
HOP-92 NSCLC = tested on: HOP-92 NSCLC
OVCAR-3 ovarian = tested on: OVCAR-3 ovarian

| Structure (SMILES) | TGI (OVCAR-4 ovarian) [µM] | TGI (T-47D breast) [µM] | TGI (RXF 393 renal) | TGI (SF-295 CNS) [µM] | TGI (HOP-62 NSCLC) [µM] | TGI (A498 renal) [µM] | TGI (SNB-19 CNS) [µM] | TGI (HCC-2998 colon) [µM] | TGI (NCI-H226 lung) [µM] | TGI (HOP-92 NSCLC) [µM] | TGI (OVCAR-3 ovarian) | GI50 (OVCAR-4 ovarian) | GI50 (RXF 393 renal) | GI50 (OVCAR-3 ovarian) [µM] | GI50 (HCC-2998 colon) [µM] |
| --- | --- | --- | --- | --- | --- | --- | --- | --- | --- | --- | --- | --- | --- | --- | --- |
| COC(=O)CC[N+]1([O-])CC1 | > 100 | > 100 | > 100 µM | > 100 | > 100 | > 100 | > 100 | > 100 | > 100 | > 100 |  |  |  |  |  |
| COc1ccc(-c2cc(-c3ccccc3)c3c(n2)-c2ccccc2NC(=O)C3)cc1 | > 100 | > 100 | > 100 µM | > 100 | > 100 | > 100 | > 100 | > 100 | > 100 | > 100 | > 100 µM |  |  |  |  |
| COc1ccccc1-c1n[nH]c(-c2ccccc2O)n1 | > 100 | > 100 | > 100 µM | > 100 | > 100 | > 100 | > 100 | > 100 | > 100 | > 100 | > 100 µM |  |  |  |  |
| COC(=O)C1=C(C(=O)OC)C2(c3ccccc3)c3ccccc3C(=O)C1N2C1CCCCC1 (configuration not stated) | > 100 | > 100 | > 89 µM | > 100 | > 100 | > 100 | > 100 | > 77.4 | > 100 | > 100 | > 100 µM |  |  |  |  |
| N#Cc1c(Cl)cccc1Oc1ccc(S(=O)(=O)/N=C(\NO)Nc2ccc(Cl)cc2)cc1 | 31.4 | 28.3 | 32.2 µM | 32.3 | 34.1 | 30.6 | 30 | 29 | 48 | 24.6 | 29.2 µM |  |  |  |  |
| c1ccc2nc3c(nc2c1)sc1nc2ccccc2n13 |  | > 100 | > 100 µM | > 100 |  | > 100 | > 100 | > 100 | > 100 | > 100 | > 100 µM |  |  |  |  |
| CCOC(=O)C(C)c1nc2cc(F)c(N3CCOCC3)cc2[nH]c1=O (configuration not stated) | > 100 | > 100 | > 100 µM | > 100 | > 100 | > 100 | > 100 | > 100 | > 100 | > 100 | > 100 µM |  |  |  |  |
| COc1ccc2c(c1OC)C(Br)CCC(Br)(Br)C2=O (configuration not stated) | 18.9 | 43 | 15.1 µM | 32.5 | 36.7 | 29.4 | 28.9 | 23.7 | 30.1 | 9.44 | 30.2 µM |  |  |  |  |
| CC1(C)C2CC1C(/C=N\OCC(=O)O)=CC2=O (configuration not stated) | > 100 | > 100 | > 100 µM | > 100 | > 100 | > 100 | > 100 | > 100 | > 100 | > 100 | > 100 µM |  |  |  |  |
| Nc1c(O)c2c(c(O)c1Cl)C(=O)C=CC2=O | 16.2 | 21.5 | 21 µM | 6.94 | 15.9 | 27.3 | 14.2 | 11.9 | 34.3 | 31.3 | 6.02 µM |  |  |  |  |
| Clc1ccccc1-c1nn2c(CCCCCCCCc3nnc4sc(-c5ccccc5Cl)nn34)nnc2s1 | > 100 | > 100 | > 100 µM | > 100 | > 100 | > 100 | > 100 | > 100 | > 100 | > 100 | > 100 µM |  |  |  |  |
| Cc1cccc(/C=N/NC(=S)NC2CCCCC2)n1 | > 100 | > 86.3 | 76.1 µM | > 100 | > 90.9 | > 71.4 | > 100 | > 89.5 | > 74.8 | 61.8 | > 29.3 µM |  |  |  |  |
| COC(=O)C1C(O)C(C)C(O)C(C)/C=C\C=C(C)C(=O)Nc2c(C)c(OC(C)=O)c3c(c2O)C(=O)C(C)=C2OCOC(=C23)C(C)=CC(C)(O)C(O)C(C)C1O (configuration not stated) | > 100 | > 100 | 51.9 µM and > 100 µM | > 100 | > 100 | > 75 | > 100 | > 100 | > 100 | > 100 | > 72 µM and 64.2 µM | > 66.3 µM and 14.6 µM | 20.9 µM and > 100 µM | 37.8 | > 100 |
| COc1ccc(/C=C/C(=O)c2cccc(C(=O)/C=C/c3ccc(OC)c(OC)c3)n2)cc1OC | > 100 | > 100 | > 86.1 µM | > 100 | > 100 | > 100 | 99.1 | > 100 | > 100 | > 100 | > 100 µM |  |  |  |  |
| CCOC(=O)NC(Nc1cccc(F)c1)(C(F)(F)F)C(F)(F)F |  | > 100 | > 100 µM | > 100 | > 100 | > 100 | > 100 | > 100 | > 100 | > 100 | > 100 µM |  |  |  |  |
| COP(=N[Si](C)(C)C)(OC)OC | > 100 | > 100 | > 100 µM |  | > 100 | > 100 | > 100 | > 100 | > 100 | > 100 | > 100 µM |  |  |  |  |
| CC(C)/C(Cl)=N/OC(NC(=O)Nc1ccc(Cl)c(Cl)c1)(C(F)(F)F)C(F)(F)F | 25.8 | 19.4 | 9.23 µM | 38.5 | 42.5 | 34.7 | 41 | 36 | 42.8 | 29.7 | 11.3 µM |  |  |  |  |
| C=CCN1C(=O)/C(=C/c2ccccc2)N=C1SC/C=C/C | > 100 | > 100 | 46.7 µM | > 100 | > 100 | > 100 | > 100 | 76.6 | > 100 | 55.5 | > 100 µM |  |  |  |  |
